66 molecules from patent publication US20100331348A1, “TROPANE DERIVATIVES USEFUL AS PESTICIDES” (SYNGENTA CROP PROTECTION, INC., priority 2007, published 2010) can be followed below.

The assay relates to Erysiphe graminis f.sp. tritici. The assay is described as follows: Erysiphe graminis f.sp. tritici (wheat powdery mildew) leaf disk assay. The class given is in vivo. To be noted: Blumeria graminis, foliar, 96 h, preventive, four days after inoculation, read-out: control of fungal infection, Erysiphe graminis fsp. tritici.
With `Cc1c(CON=C2CC3CCC(C2)N3c2ncnc3sccc23)ccc2ccccc12` [Example 5.176], the pest or weed control at 200 ppm was at least 80%.

Turning to `CCc1ncnc(N2C3CCC2CC(=NOCc2c4ccccc4cc4ccccc24)C3)c1Cl` [Example 5.9], the pest or weed control at 200 ppm was at least 80%.

Take `CCc1ncnc(N2[C@@H]3CC[C@H]2CC(Oc2ccc(C(=O)c4ccccc4)cc2)C3)c1Cl` (stereo partly drawn) [Example 2.141]: the pest or weed control at 200 ppm is at least 80%.

Turning to `CCc1ncnc(N2[C@@H]3CC[C@H]2CC(Oc2ccc(Oc4nc(C)ns4)cc2)C3)c1Cl` (stereo partly drawn) [Example 2.91], the pest or weed control at 200 ppm is at least 80%.

Consider `CCc1ncnc(N2C3CCC2CC(=NOCc2ccccc2CCl)C3)c1Cl` [Example 5.42], for which the pest or weed control at 200 ppm was at least 80%.

For the molecule `Fc1cccc(OC2C[C@H]3CC[C@@H](C2)N3c2ncnc3sccc23)c1F` (stereo partly drawn) [Example 2.24], the pest or weed control at 200 ppm was at least 80%.

`CCc1ncnc(N2[C@@H]3CC[C@H]2CC(Oc2ccc(C(C)(C)c4ccc(O)cc4)cc2)C3)c1Cl` (stereo partly drawn) [Example 2.131]: the pest or weed control at 200 ppm was at least 80%.

As to `CCc1ncnc(N2[C@@H]3CC[C@H]2CC(Oc2cc(Cl)c(Cl)cc2Cl)C3)c1Cl` (stereo partly drawn) [Example 1.196], the pest or weed control at 200 ppm was at least 80%.

In the case of `CCc1ncnc(N2[C@@H]3CC[C@H]2CC(Oc2ccc(C4CCc5ccccc54)cc2)C3)c1Cl` (stereo partly drawn) [Example 2.173], the pest or weed control at 200 ppm was at least 80%.

As for `C#CCON=C1CC2CCC(C1)N2c1ncnc(C(C)c2ncnc(CC)c2Cl)c1Cl` (stereo not drawn) [Example 5.49], the pest or weed control at 200 ppm was at least 80%.

For `CCc1ncnc(C(C)c2ncnc(N3C4CCC3CC(=NOCc3ccccc3)C4)c2Cl)c1Cl` (stereo not drawn) [Example 5.77], the pest or weed control at 200 ppm is at least 80%.

Turning to `CCc1ncnc(N2C3CCC2CC(=NOc2nc(SC)nc(Cl)c2-c2ccccc2)C3)c1Cl` [Example 5.125], the pest or weed control at 200 ppm is at least 80%.

Turning to `FC(F)(F)c1ccc(Cl)c(CON=C2CC3CCC(C2)N3c2ncnc3sccc23)c1` [Example 5.195], the pest or weed control at 200 ppm is at least 80%.

On to `Cc1nsc(Oc2ccc(OC3C[C@H]4CC[C@@H](C3)N4c3ncnc4scc(C)c34)cc2)n1` (stereo partly drawn) [Example 2.72], for which the pest or weed control at 200 ppm was at least 80%.

On to `CCc1ncnc(N2C3CCC2CC(=NOc2cc(Cl)nc(Cl)n2)C3)c1Cl` [Example 5.71], for which the pest or weed control at 200 ppm is at least 80%.

As to `CC(C)(C)CC(C)(C)c1ccc(OC2C[C@H]3CC[C@@H](C2)N3c2ncnc3sccc23)cc1` (stereo partly drawn) [Example 2.35], the pest or weed control at 200 ppm is at least 80%.

Consider `CCCCCCOc1ccc(OC2C[C@H]3CC[C@@H](C2)N3c2ncnc(CC)c2Cl)cc1` (stereo partly drawn) [Example 1.140], for which the pest or weed control at 200 ppm is at least 80%.

Consider `Cc1ccc(-c2nc(Cl)c(C)c(OC3C[C@H]4CC[C@@H](C3)N4c3ncnc4sccc34)n2)cc1` (stereo partly drawn) [Example 1.97], for which the pest or weed control at 200 ppm was at least 80%.

Consider `CCc1ncnc(N2C3CCC2CC(=NOc2nc(N(C)C)cc(C(F)(F)F)n2)C3)c1Cl` [Example 5.72], for which the pest or weed control at 200 ppm was at least 80%.

As to `c1ccc(-c2nnco2)c(OC2C[C@H]3CC[C@@H](C2)N3c2ncnc3sccc23)c1` (stereo partly drawn) [Example 2.68], the pest or weed control at 200 ppm was at least 80%.

As for `COc1cc(OC2C[C@H]3CC[C@@H](C2)N3c2ncnc3sccc23)cc(OC)c1OC` (stereo partly drawn) [Example 1.13], the pest or weed control at 200 ppm was at least 80%.

As for `CCOc1cc(C)ccc1OC1C[C@H]2CC[C@@H](C1)N2c1ncnc(CC)c1Cl` (stereo partly drawn) [Example 2.126], the pest or weed control at 200 ppm is at least 80%.

Regarding `CCc1ncnc(C(C)c2ncnc(N3C4CCC3CC(=NOCc3ccc(F)cc3)C4)c2Cl)c1Cl` (stereo not drawn) [Example 5.102], the pest or weed control at 200 ppm is at least 80%.

`CCC(C)c1cccc(C(C)CC)c1OC1C[C@H]2CC[C@@H](C1)N2c1ncnc2sccc12` (stereo partly drawn) [Example 2.46]: the pest or weed control at 200 ppm is at least 80%.

Turning to `CCc1ncnc(N2C3CCC2CC(=NOCc2cccc(OC(F)(F)F)c2)C3)c1Cl` [Example 5.75], the pest or weed control at 200 ppm is at least 80%.

Turning to `Cc1ccc(-c2c(C)cccc2C)c(C)c1OC1C[C@H]2CC[C@@H](C1)N2c1ncnc2sccc12` (stereo partly drawn) [Example 2.49], the pest or weed control at 200 ppm is at least 80%.

Consider `CCc1ncnc(N2C3CCC2CC(=NOCc2ccc(Cl)c(Cl)c2)C3)c1Cl` [Example 5.52], for which the pest or weed control at 200 ppm was at least 80%.

With `CCc1ncnc(N2[C@@H]3CC[C@H]2CC(Oc2cccc(Oc4nc(C)ns4)c2)C3)c1Cl` (stereo partly drawn) [Example 2.89], the pest or weed control at 200 ppm is at least 80%.

Take `CCc1ncnc(N2[C@@H]3CC[C@H]2CC(Oc2ccc(Br)cc2C)C3)c1Cl` (stereo partly drawn) [Example 1.180]: the pest or weed control at 200 ppm was at least 80%.

For the molecule `CCc1ncnc(N2C3CCC2CC(=NOCc2cc(F)c(F)c(C(F)(F)F)c2)C3)c1Cl` [Example 5.103], the pest or weed control at 200 ppm is at least 80%.

As to `CCc1ncnc(N2[C@@H]3CC[C@H]2CC(Oc2cccc(F)c2)C3)c1Cl` (stereo partly drawn) [Example 2.117], the pest or weed control at 200 ppm was at least 80%.

On to `CCc1ncnc(N2[C@@H]3CC[C@H]2CC(Oc2ccc(C)cc2)C3)c1Cl` (stereo partly drawn) [Example 1.162], for which the pest or weed control at 200 ppm was at least 80%.

`CC(C)(C)c1ccc(OC2C[C@H]3CC[C@@H](C2)N3c2ncnc3sccc23)c(C(C)(C)C)c1` (stereo partly drawn) [Example 2.45]: the pest or weed control at 200 ppm is at least 80%.

Turning to `CC(=O)c1cc(Cl)c2ccccc2c1OC1C[C@H]2CC[C@@H](C1)N2c1ncnc2sccc12` (stereo partly drawn) [Example 2.59], the pest or weed control at 200 ppm is at least 80%.

For the molecule `c1cc(OC2C[C@H]3CC[C@@H](C2)N3c2ncnc3sccc23)ccn1` (stereo partly drawn) [Example 2.7], the pest or weed control at 200 ppm is at least 80%.

As for `COc1ccccc1OC1C[C@H]2CC[C@@H](C1)N2c1ncnc2sccc12` (stereo partly drawn) [Example 2.4], the pest or weed control at 200 ppm is at least 80%.

For the molecule `Cc1cc(Cl)nc(CON=C2CC3CCC(C2)N3c2ncnc3sccc23)n1` [Example 5.132], the pest or weed control at 200 ppm is at least 80%.

In the case of `Cc1nsc(N2[C@@H]3CC[C@H]2CC(Oc2ccc(C(F)(F)F)cn2)C3)n1` (stereo partly drawn) [Example 2.203], the pest or weed control at 200 ppm is at least 80%.

In the case of `CC(C)(C)c1ccc(OC2C[C@H]3CC[C@@H](C2)N3c2ncnc3sccc23)cc1` (stereo partly drawn) [Example 2.26], the pest or weed control at 200 ppm is at least 80%.

Take `CCc1ncnc(N2[C@@H]3CC[C@H]2CC(Oc2ccc(C(C)(C)C)cc2C(C)(C)C)C3)c1Cl` (stereo partly drawn) [Example 1.221]: the pest or weed control at 200 ppm was at least 80%.

As for `COc1nc(-c2ccc(C)cc2)nc(ON=C2CC3CCC(C2)N3c2ncnc3sccc23)c1C` [Example 5.251], the pest or weed control at 200 ppm was at least 80%.

Take `N#Cc1ccc(OC2C[C@H]3CC[C@@H](C2)N3c2ncnc3sccc23)cc1` (stereo partly drawn) [Example 2.22]: the pest or weed control at 200 ppm was at least 80%.

As for `Fc1ccc(OC2C[C@H]3CC[C@@H](C2)N3c2ncnc3sccc23)cc1` (stereo partly drawn) [Example 2.11], the pest or weed control at 200 ppm is at least 80%.

`CCc1nc(Cl)c(C)c(ON=C2CC3CCC(C2)N3c2ncnc3sccc23)n1` [Example 5.171]: the pest or weed control at 200 ppm was at least 80%.

In the case of `Fc1c(F)c(F)c(OC2C[C@H]3CC[C@@H](C2)N3c2ncnc3sccc23)c(F)c1F` (stereo partly drawn) [Example 2.38], the pest or weed control at 200 ppm is at least 80%.

`CCc1ncnc(N2[C@@H]3CC[C@H]2CC(Oc2ccc(OC)cc2Cl)C3)c1Cl` (stereo partly drawn) [Example 2.142]: the pest or weed control at 200 ppm is at least 80%.

As to `CCc1ncnc(N2C3CCC2CC(=NOCc2ccc(C(C)(C)C)cc2)C3)c1Cl` [Example 5.26], the pest or weed control at 200 ppm is at least 80%.

On to `Cn1nc(C(F)(F)F)c(Cl)c1C(=O)N1[C@@H]2CC[C@H]1CC(Oc1cc(C(F)(F)F)ccn1)C2` (stereo partly drawn) [Example 2.220], for which the pest or weed control at 200 ppm is at least 80%.

As for `CCc1ncnc(N2[C@@H]3CC[C@H]2CC(Oc2ccc(Br)cc2C(C)=O)C3)c1Cl` (stereo partly drawn) [Example 2.182], the pest or weed control at 200 ppm was at least 80%.

On to `CCc1ncnc(N2C3CCC2CC(=NOCc2cc(F)ccc2C(F)(F)F)C3)c1Cl` [Example 5.101], for which the pest or weed control at 200 ppm was at least 80%.

As to `FC(F)(F)c1ccnc(OC2C[C@H]3CC[C@@H](C2)N3c2ccnc3cc(Cl)ccc23)c1` (stereo partly drawn) [Example 2.192], the pest or weed control at 200 ppm is at least 80%.

As for `ClCc1cccc(CON=C2CC3CCC(C2)N3c2ncnc3sccc23)c1` [Example 5.200], the pest or weed control at 200 ppm is at least 80%.

Regarding `CCc1nc(Cl)c(CC)c(ON=C2CC3CCC(C2)N3c2ncnc3sccc23)n1` [Example 5.194], the pest or weed control at 200 ppm is at least 80%.

As for `Clc1ccc(Oc2cccc(OC3C[C@H]4CC[C@@H](C3)N4c3ncnc4sccc34)c2)cc1` (stereo partly drawn) [Example 2.15], the pest or weed control at 200 ppm was at least 80%.

Regarding `CCCON=C1CC2CCC(C1)N2c1ccnc2c1c(C)nn2C` [Example 5.244], the pest or weed control at 200 ppm is at least 80%.

For the molecule `CCc1ncnc(N2C3CCC2CC(=NOCc2cc(Br)cc(Br)c2)C3)c1Cl` [Example 5.53], the pest or weed control at 200 ppm is at least 80%.

Turning to `CCc1ncnc(N2[C@@H]3CC[C@H]2CC(Oc2ccccc2-c2nnc(C(C)(C)C)o2)C3)c1Cl` (stereo partly drawn) [Example 2.190], the pest or weed control at 200 ppm was at least 80%.

`CCc1ncnc(N2[C@@H]3CC[C@H]2CC(Oc2ccccc2C(F)(F)F)C3)c1Cl` (stereo partly drawn) [Example 2.146]: the pest or weed control at 200 ppm is at least 80%.

In the case of `Cc1ccc(C(C)(C)C)c(OC2C[C@H]3CC[C@@H](C2)N3c2ncnc3sccc23)c1` (stereo partly drawn) [Example 2.43], the pest or weed control at 200 ppm is at least 80%.

As to `Cc1ccc(OC2C[C@H]3CC[C@@H](C2)N3c2ncnc3sccc23)cc1` (stereo partly drawn) [Example 2.8], the pest or weed control at 200 ppm was at least 80%.

Take `c1nc(C2C[C@H]3CC[C@@H](C2)N3c2ncnc3sccc23)c2ccsc2n1` (stereo partly drawn) [Example 2.28]: the pest or weed control at 200 ppm is at least 80%.

With `CCc1ncnc(N2C3CCC2CC(=NOCc2cc(Cl)ccc2Cl)C3)c1Cl` [Example 5.62], the pest or weed control at 200 ppm was at least 80%.

Turning to `CCCCCCCCC1COC2(CC3CCC(C2)N3c2ncnc3sccc23)O1` (stereo not drawn) [Example 6.1], the pest or weed control at 200 ppm is at least 80%.

On to `CCc1ncnc(N2C3CCC2CC(=NOc2cc(OC)nc(OC)n2)C3)c1Cl` [Example 5.97], for which the pest or weed control at 200 ppm was at least 80%.

For the molecule `CCc1ncnc(N2[C@@H]3CC[C@H]2CC(Oc2ccc(F)c(F)c2)C3)c1Cl` (stereo partly drawn) [Example 2.125], the pest or weed control at 200 ppm was at least 80%.

`FC(F)(F)c1cc(CON=C2CC3CCC(C2)N3c2ncnc3sccc23)cc(C(F)(F)F)c1` [Example 5.186]: the pest or weed control at 200 ppm is at least 80%.
